Nine compounds from patent US20180312473A1, “PHENAZINE DERIVATIVES AS ANTIMICROBIAL AGENTS” (priority 2015, published 2018) can be followed below.

The test system of series [1] is MRSA-2 planktonic cells and biofilms. Briefly: Calgary Biofilm Device (CBD) assay, MBC/MBEC. As to conditions: Staphylococcus aureus, MRSA. The format is cell-based, Staphylococcus aureus.
For series [2], the system named is MRSE (S. epidermidis ATCC 35984) planktonic cells and biofilms. The series is described as follows: Calgary Biofilm Device (CBD) assay, MBC/MBEC. It is filed as cell-based, Staphylococcus epidermidis. As to conditions: Table 8; for MBC: Staphylococcus epidermidis, read-out: MRSE 35984 MBC.
Another series concerns human red blood cells. Briefly: Hemolysis assay with red blood cells. As to conditions: 200 μM. Here is the method: The hemolysis activities of select compounds of the invention were determined. […] The washing was repeated three times with the buffer. In 96-well plate, test compounds were added to the buffer from DMSO stocks. […] The plate was then incubated for 1 hour at 37° C. After incubation, the plate was centrifuged for 5 minutes at 3,500 rpm. Then 80 μL of the supernatant was transferred to another 96-well plate, and the optical density (OD) was read at 405 nm. DMSO served as the negative control (0% hemolysis), while Triton X served as the positive control (100% hemolysis). The percent of hemolysis was calculated as (OD405 of the compound−OD405 of DMSO)/(OD405 of Triton X−OD405 of the buffer).
The washing was repeated three times with the buffer. In 96-well plate, test compounds were added to the buffer from DMSO stocks. […] The plate was then incubated for 1 hour at 37° C. After incubation, the plate was centrifuged for 5 minutes at 3,500 rpm. Then 80 μL of the supernatant was transferred to another 96-well plate and the optical density (OD) was read at 405 nm. DMSO served as our negative control (0% hemolysis) while Triton X served as our positive control (100% hemolysis). The percent of hemolysis was calculated as (OD405 of the test compound−OD405 DMSO)/(OD405 Triton X−OD405 buffer) from three independent experiments.

Series [3] has as its system Staphylococcus epidermidis (ATCC 12228). Briefly: MIC assay (broth microdilution, CLSI). The format is cell-based. As to conditions: Staphylococcus epidermidis, ATCC12228; Table 7; b lowest concentration tested; read-out: MIC, S. epidermidis 12228.
In series [4] the test system is MRSA-2 (methicillin-resistant Staphylococcus aureus clinical isolate). Briefly: MIC assay (broth microdilution, CLSI). The format is cell-based. The settings on record: Staphylococcus aureus, MRSA, Table 7; a midpoint of 2-fold range; b lowest concentration tested; read-out: MIC, MRSA-2. (In general: Dilution methods test growth across graded concentrations, often in twofold steps.)

Series [5] deals with Enterococcus faecium (ATCC 700221), VRE. The series is described as follows: MIC assay (broth microdilution, CLSI). The settings on record: Table 7; b lowest concentration tested; read-out: MIC, VRE 700221. It is filed as cell-based.
Another series concerns E. faecium 700221 (VRE). The series is described as follows: MIC assay with Tiron or metal(II) cation co-treatment. It is filed as cell-based, Enterococcus faecium.
A further series concerns MRSA-2. Described as above. The format is cell-based, Staphylococcus aureus.
A further series concerns S. epidermidis 12228. The description is as above. It is filed as cell-based, Staphylococcus epidermidis.
The test system of series [6] is M. tuberculosis H37Ra (ATCC 25177). Briefly: Mycobacterium tuberculosis MIC assay. It is filed as cell-based. The settings on record: Mycobacterium tuberculosis. How it is done: The culture was then diluted with fresh medium until an OD600 of 0.01 was reached. […] The final DMSO concentration was maintained at 0.5%. […] Three rows were reserved for each compound. […] OD600 absorbance was recorded using SPECTRAMAX M5 (Molecular Devices). Data obtained from three independent experiments were analyzed using Excel.
The culture was then diluted with fresh medium until an OD600 of 0.01 was reached. […] The final DMSO concentration was maintained at 0.5%. […] Three rows were reserved for each compound. […] OD600 absorbance was recorded using SPECTRAMAX M5 (Molecular Devices). Data obtained from three independent experiments were analyzed using EXCEL.

Series [7] has as its system VRE (E. faecium ATCC 700221) planktonic cells and biofilms. The series is described as follows: Calgary Biofilm Device (CBD) assay, MBC/MBEC. It is filed as cell-based, Enterococcus faecium. As to conditions: Enterococcus; Table 8; c lowest concentration tested; read-out: VRE 700221 MBC.
[8] abbreviates: Table 8, a/b 2-/4-fold range in independent experiments, read-out: MRSA-2 MBC.
Where [9] appears, read: E. faecium 700221, + loss, − increase of activity.
The mark [10] stands for this setting: MRSA-2, + loss, − increase of activity.
Setting [11] is: S. epidermidis 12228, + loss, − increase of activity.

Molecules are shown by their SMILES. Converted amounts (≈) assume the structure as drawn. Where two headings read alike, the source gives them in different places.

`N#CC(C#N)=NNc1cccc(Cl)c1` [CCCP, carbonyl cyanide m-chlorophenyl hydrazone, reference compound]: the MBC in series [1] (Table 5, a/b midpoint of 2-/4-fold range, read-out: MRSA-2 MBC) was determined as 31.3 µM (≈ 6.4 µg/mL); in [1] (setting [8]) it was 31.3 µM (≈ 6.4 µg/mL); in series [2] it was 31.3 µM (≈ 6.4 µg/mL). The “% Hemolysis at 200 μM” value with human red blood cells (red blood cells) is 3.5%; with human red blood cells (Table 8, human red blood cells), 3.5%.

Take `CO[C@H]1/C=C/O[C@@]2(C)Oc3c(C)c(O)c4c(O)c(c(/C=N/N5CCN(C)CC5)c(O)c4c3C2=O)NC(=O)/C(C)=C\C=C\[C@H](C)[C@H](O)[C@@H](C)[C@@H](O)[C@@H](C)[C@H](OC(C)=O)[C@@H]1C` [Rifampin, rifampin, reference compound]: in series [3], the MIC is 0.1 µM (≈ 0.0823 µg/mL). Besides, in the series with human red blood cells (human, 1 h, pH 7.2), the “% Hemolysis (200 μM)” value was determined as 8.0%.

Turning to `C=CCc1cc(Br)c2nc3ccccc3nc2c1O` [Compound 23, 2-Allyl-4-bromo-1-hydroxyphenazine], the MIC in series [3], in [4] and in series [5] was over 100 µM throughout.

For `Oc1cccc2cccnc12` [Compound 8-HQ, 8-hydroxyquinoline, reference compound], the MIC was 18.8 µM in the series with E. faecium 700221 (VRE); 18.8 µM with E. faecium 700221 (VRE) (Enterococcus faecium, VRE); 18.8 µM with E. faecium 700221 (VRE) (Enterococcus faecium, VRE, read-out: MIC with Cu^2+); over 100 µM in the series with E. faecium 700221 (VRE) (Enterococcus faecium, VRE, read-out: MIC with Tiron); over 100 µM in the series with E. faecium 700221 (VRE) (read-out: MIC with Tiron); over 100 µM in the series on MRSA-2 (MRSA-2, 1 mM Tiron, read-out: MIC with Tiron). The MIC in the series on MRSA-2 (MRSA-2, no additive (Table 9), read-out: MIC) is 6.25 µM; in the series on MRSA-2 (Staphylococcus aureus, MRSA), 6.25 µM; in the series with MRSA-2 (Staphylococcus aureus, MRSA, read-out: MIC with Cu^2+), 3.13 µM; in the series with MRSA-2 (Staphylococcus aureus, MRSA, read-out: MIC with Fe^2+), 6.25 µM; in the series on MRSA-2 (Staphylococcus aureus, MRSA, read-out: MIC with Tiron), over 100 µM; in the series with S. epidermidis 12228 (S. epidermidis 12228, 1 mM Tiron, read-out: MIC with Tiron), over 100 µM. For the same compound, the MIC in the series on S. epidermidis 12228 (S. epidermidis 12228, no additive, read-out: MIC) is 3.13 µM; in the series on S. epidermidis 12228 (Staphylococcus epidermidis, 12228), 3.13 µM; in the series with S. epidermidis 12228 (Staphylococcus epidermidis, 12228, read-out: MIC with Cu^2+) it was 3.13 µM; in the series with S. epidermidis 12228 (Staphylococcus epidermidis, 12228, read-out: MIC with Tiron), over 100 µM. For the same compound, the “Fold Δ (Cu^2+)” value with E. faecium 700221 (VRE) (setting [9]) was “n.a. (insignificant changes in MIC values (≤2-fold changes))”; in the series with MRSA-2 (setting [10]), “n.a. (insignificant changes in MIC values (<2-fold changes))”; with S. epidermidis 12228 (setting [11]), “n.a. (insignificant changes in MIC values (≤2-fold changes))”. Also, the “Fold Δ (Tiron)” value in the series on E. faecium 700221 (VRE) (setting [9]) was “>+12”; in the series with MRSA-2 (setting [10]) it was “+16”; in the series with S. epidermidis 12228 (setting [11]) it was “>+32”. Further, the “Fold Δ (MIC with Tiron vs MIC)” value is given as “>+12” with E. faecium 700221 (VRE) (VRE 700221, + loss, − increase of activity); “+16” in the series with MRSA-2 (MRSA-2, + loss, − increase of antibacterial activity); “>+32” in the series on S. epidermidis 12228 (setting [11]). In the series on MRSA-2 (MRSA-2), the “effect of tiron co-treatment on antibacterial activity” value is on record as “complete loss of antibacterial activity”. For the same compound, the “Fold Δ (Fe^2+)” value in the series on MRSA-2 (setting [10]) was “n.a. (insignificant changes in MIC values (<2-fold changes))”.

As to `CN(C)[C@@H]1C(O)=C(C(N)=O)C(=O)[C@@]2(O)C(O)=C3C(=O)c4c(O)cccc4[C@@](C)(O)[C@H]3C[C@@H]12` [Tetracyc., tetracycline, reference compound], in the series on MRSA-2 (setting [10]), the “Fold Δ (Cu^2+)” value is given as “n.a. (insignificant changes in MIC values (<2-fold changes))”. Besides, the “Fold Δ (Fe^2+)” value in the series on MRSA-2 (setting [10]) was “+16”. In addition, the MIC in the series with MRSA-2 (Staphylococcus aureus, MRSA-2, 200 μM copper(II), read-out: MIC with Cu^2+) was determined as 1.56 µM; with MRSA-2 (Staphylococcus aureus, MRSA-2, 200 μM iron(II), read-out: MIC with Fe^2+), 18.8 µM; with MRSA-2 (Staphylococcus aureus, MRSA-2, no additive (Table 9), read-out: MIC) it was 1.17 µM.

Turning to `O=C(O)c1cn(C2CC2)c2cc(N3CCNCC3)c(F)cc2c1=O` [Ciprofloxacin, ciprofloxacin, reference compound], the “% Hemolysis (200 μM)” value in the series with human red blood cells (1 h, 37 °C) was determined as 1.8%.

On to `[H]/N=C(/N)N[C@H]1[C@H](O)[C@@H](O)[C@H](O[C@@H]2O[C@@H](C)[C@](O)(C=O)[C@H]2O[C@@H]2O[C@@H](CO)[C@H](O)[C@@H](O)[C@@H]2NC)[C@@H](N/C(N)=N\[H])[C@@H]1O` [Streptomycin, streptomycin, reference compound], for which the MIC in [6] (168 h, read-out: Mtb MIC) is 1.32 µM (≈ 0.768 µg/mL); in series [6] (Table 7, read-out: MIC, M. tuberculosis H37Ra), 1.32 µM (≈ 0.768 µg/mL).

With `O=C(O)CN(CCN(CC(=O)O)CC(=O)O)CC(=O)O` [EDTA, ethylenediaminetetraacetic acid, reference compound], in [2], the MBC amounted to 1000 µM (≈ 292 µg/mL) and the “MRSE 35984 MBEC” value was over 2000 µM. Also, the “% Hemolysis at 200 μM” value in the series with human red blood cells (human, 1 h, pH 7.2) is listed as 3.0%.

With `CC(=O)N[C@@H](CS)C(=O)O` [NAC, N-acetyl cysteine, reference compound], the MBC in series [1] (Table 4, read-out: MBC, MRSA-2) is over 2000 µM; in series [1] (setting [8]), over 2000 µM; in series [7] it was over 2000 µM; in series [2], over 2000 µM.

The term MIC denotes the lowest concentration that inhibits growth of the organism.
